# Publication PMC9257445 (Journal of Pharmaceutical Analysis, 2021)
# Biological target: T1, tumor necrosis factor receptor type 1 (TNF-R1) (Homo sapiens, UniProt P19438)
# T1 sequence (P19438 30-455): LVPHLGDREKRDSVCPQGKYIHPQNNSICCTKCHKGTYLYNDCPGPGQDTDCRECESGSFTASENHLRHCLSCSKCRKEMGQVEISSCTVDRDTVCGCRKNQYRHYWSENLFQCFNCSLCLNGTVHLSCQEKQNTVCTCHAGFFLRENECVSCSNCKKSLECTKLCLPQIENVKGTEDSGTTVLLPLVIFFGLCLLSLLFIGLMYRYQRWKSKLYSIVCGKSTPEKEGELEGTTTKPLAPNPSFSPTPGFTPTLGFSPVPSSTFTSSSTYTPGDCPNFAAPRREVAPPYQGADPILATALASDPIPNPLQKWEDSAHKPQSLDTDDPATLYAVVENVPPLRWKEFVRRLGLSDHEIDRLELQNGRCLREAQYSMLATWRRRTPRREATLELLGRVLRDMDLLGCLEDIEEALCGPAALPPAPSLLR
# Assay: SPR
# Format: binding
compound,measurement,value
COc1ccc(C(C)=O)c(O)c1 [paeonol],Kd,11.8 µM
